Assay results published in ChEMBL document CHEMBL1201862, “PubChem BioAssay data set” (2004).
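Following 48 hours of exposure in 96-well plates, responses at five concentrations were used to interpolate endpoints linearly. GI50 = concentration required for 50% inhibition of growth.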 Activity calls are given as the source filed them. Cut-off read from the data, not from the text of the source: active = GI50 up to about 1.1 µM and inactive = higher.

Columns and labels:
Test in all cases: inhibition of tumour cell growth, NCI panel, 48 h
T47D = tested on: T47D
MDA-MB-231 = tested on: MDA-MB-231
IGROV-1 = tested on: IGROV-1
786-0 = tested on: 786-0
COLO 205 = tested on: COLO 205
OVCAR-8 = tested on: OVCAR-8
KM12 = tested on: KM12
UACC-62 = tested on: UACC-62
MCF7 = tested on: MCF7
SF-539 = tested on: SF-539
SF-295 = tested on: SF-295
RXF 393 = tested on: RXF 393
MOLT-4 = tested on: MOLT-4
OVCAR-5 = tested on: OVCAR-5
MDA-MB-435 = tested on: MDA-MB-435
HT-29 = tested on: HT-29
TK-10 = tested on: TK-10
HCC 2998 = tested on: HCC 2998
EKVX = tested on: EKVX

Compound | GI50 (T47D) | GI50 (MDA-MB-231) | GI50 (IGROV-1) | GI50 (786-0) | GI50 (COLO 205) | GI50 (OVCAR-8) | GI50 (KM12) | GI50 (UACC-62) | GI50 (MCF7) | GI50 (SF-539) | GI50 (SF-295) | GI50 (RXF 393) | GI50 (MOLT-4) | GI50 (OVCAR-5) | GI50 (MDA-MB-435) | GI50 (HT-29) | GI50 (TK-10) | GI50 (HCC 2998) | GI50 (EKVX)
Cc1c2c(OCCCCN3CCN(c4ncccn4)CC3)nn(C)c(=O)c2c(C)n1-c1ccccc1 | 17.9 µM (inactive) | 16 µM (inactive) | 17.8 µM (inactive) | 18.1 µM (inactive) | 19 µM (inactive) | 24.7 µM (inactive) | 18.4 µM (inactive) | 16.8 µM (inactive) | 16.4 µM (inactive) | 17.6 µM (inactive) | 16.4 µM (inactive) | 18.6 µM (inactive) | 26.8 µM (inactive) | 20.5 µM (inactive) | 18.7 µM (inactive) | 24.8 µM (inactive) | 19 µM (inactive) | 20 µM (inactive) | 19.1 µM (inactive)
O=C1C=Cc2c(Cl)sc(Cl)c21 | 1.81 µM (inactive) | 2.86 µM (inactive) | 1.63 µM (inactive) | 0.94 µM (active) | 1.45 µM (inactive) | 1.6 µM (inactive) | 0.883 µM (active) | 3.01 µM (inactive) | 1.05 µM (active) | 1.48 µM (inactive) | 8.59 µM (inactive) | 2.09 µM (inactive) | 0.12 µM (active) | 4.3 µM (inactive) | 2.02 µM (inactive) | 1.46 µM (inactive) | 2.24 µM (inactive) | 5.38 µM (inactive) | 3.27 µM (inactive)
COC(=O)c1cccc(OC)c1C#Cc1c(OC)cccc1OC | 76.2 µM (inactive) | > 100 µM (inactive) | > 100 µM (inactive) | > 100 µM (inactive) | > 100 µM (inactive) | > 100 µM (inactive) | 69.7 µM (inactive) | > 100 µM (inactive) | > 100 µM (inactive) | > 100 µM (inactive) | > 100 µM (inactive) | > 100 µM (inactive) | > 100 µM (inactive) | > 100 µM (inactive) | 47.8 µM (inactive) | > 100 µM (inactive) | > 100 µM (inactive) | > 100 µM (inactive) | > 100 µM (inactive)
COc1ccc(N(C(=O)Nc2ccc(Cl)c(Cl)c2)c2ccccc2)cc1 | > 10 µM (inactive) | > 10 µM (inactive) | > 10 µM (inactive) | > 10 µM (inactive) | > 10 µM (inactive) | > 10 µM (inactive) | > 10 µM (inactive) | > 10 µM (inactive) | > 10 µM (inactive) | > 10 µM (inactive) | > 10 µM (inactive) | > 10 µM (inactive) | > 10 µM (inactive) | > 10 µM (inactive) | > 10 µM (inactive) | > 10 µM (inactive) | > 10 µM (inactive) | > 10 µM (inactive) | > 10 µM (inactive)
CCOC(=O)C(NC(=O)c1ccccc1)(N1CCN(c2cc3c(cc2F)c(=O)c(C(=O)O)cn3CC)CC1)C(F)(F)F (configuration not stated) | 23.9 µM (inactive) | 23.6 µM (inactive) | 38.4 µM (inactive) | 39.7 µM (inactive) | 17.1 µM (inactive) | 19.2 µM (inactive) | 25.9 µM (inactive) | 29.6 µM (inactive) | 26.6 µM (inactive) | 26.5 µM (inactive) | 37.5 µM (inactive) | 33.8 µM (inactive) | 21.5 µM (inactive) | 21.1 µM (inactive) | 29.2 µM (inactive) | 29 µM (inactive) | 29.4 µM (inactive) | 52.2 µM (inactive) | 17.1 µM (inactive)
CCOC(=O)Cc1ccc(Nc2nc3cc(F)c(F)cc3nc2C(=O)OCC)cc1 | 35.1 µM (inactive) | 2.34 µM (inactive) | 28.7 µM (inactive) | > 100 µM (inactive) | 37.2 µM (inactive) | 29.2 µM (inactive) | > 100 µM (inactive) | 39.2 µM (inactive) | 37.6 µM (inactive) | > 100 µM (inactive) | 73.1 µM (inactive) | 33.9 µM (inactive) | 44 µM (inactive) | > 100 µM (inactive) | 65.6 µM (inactive) | 53.7 µM (inactive) | > 100 µM (inactive) | 25.6 µM (inactive) | 22.8 µM (inactive)
COC(=O)/C=c1/c2ccccc2n2c1c1ccccc1[n+]2C | 3.86 µM (inactive) | 4.59 µM (inactive) | 3.56 µM (inactive) | 2.99 µM (inactive) | 1.26 µM (inactive) | 3.33 µM (inactive) | 2.71 µM (inactive) | 6.73 µM (inactive) | 3.34 µM (inactive) | 3.82 µM (inactive) | 2.69 µM (inactive) | 4.54 µM (inactive) | 4.27 µM (inactive) | 4.6 µM (inactive) | 4.2 µM (inactive) | 3.79 µM (inactive) | 2.67 µM (inactive) | 2.35 µM (inactive) | 3.08 µM (inactive)
Cc1nc2c3c(ncn2n1)Oc1c(c(-c2ccccc2)nn1-c1ccccc1)C3c1ccc(Cl)cc1 (configuration not stated) | > 100 µM (inactive) | > 100 µM (inactive) | > 100 µM (inactive) | 39 µM (inactive) | > 100 µM (inactive) | 56.9 µM (inactive) | > 100 µM (inactive) | 53.6 µM (inactive) | > 100 µM (inactive) | 22.3 µM (inactive) | 50.8 µM (inactive) | 72.3 µM (inactive) | > 100 µM (inactive) | > 100 µM (inactive) | > 100 µM (inactive) | > 100 µM (inactive) | 39.4 µM (inactive) | > 100 µM (inactive) | > 100 µM (inactive)
